Test results reported in patent US6727066B2, “Genes expressed in treated human C3A liver cell cultures” (Incyte Corporation, priority 2000, dated 2004).

Tested on: human C3A liver cell cultures
Assay: Microarray differential expression of cDNAs in treated human C3A liver cell cultures
Type: cell-based
Conditions: change vs untreated C3A cells
Excerpt: Incyte clones represent template sequences derived from the LIFESEQ GOLD assembled human sequence database (Incyte Genomics). In cases where more than one clone was available for a particular template, the 5′-most clone in the template was used on the microarray. The GENEALBUM GEM series 1-6 microarrays (Incyte Genomics) contain 52,616 array elements which represent 17,472 annotated clusters and 35,144 unannotated clusters. The HUMAN GENOME GEM series 1-3 microarrays (Incyte Genomics) contain 28,626 array elements which represent 10,068 annotated clusters and 18,558 unannotated clusters. For the UNIGEM series microarrays (Incyte Genomics), Incyte clones were mapped to non-redundant Unigene clusters (Unigene database (build 46), NCBI; Shuler (1997) J Mol Med 75:694-698), and the 5′ clone with the strongest BLAST alignment (at least 90% identity and 100 bp overlap) was chosen, verified, and used in the construction of the microarray. The UNIGEM V microarray (Incyte Genomics) contains 7075 array elements which represent 4610 annotated genes and 2,184 unannotated clusters.
To construct microarrays, cDNAs were amplified from bacterial cells using primers complementary to vector sequences flanking the cDNA insert. […] Amplified cDNAs were then purified using […]-400 columns (APB). Purified cDNAs were immobilized on polymer-coated glass slides. Glass microscope slides (Corning, Corning N.Y.) were cleaned by ultrasound in 0.1% SDS and acetone, with extensive distilled water washes between and after treatments. Glass slides were etched in 4% hydrofluoric acid (VWR Scientific Products, West Chester Pa.), washed thoroughly in distilled water, and coated with 0.05% aminopropyl silane (Sigma Aldrich) in 95% ethanol. Coated slides were cured in a 110° C. oven. cDNAs were applied to the coated glass substrate using a procedure described in U.S. Pat. No. 5,807,522. One microliter of the cDNA at an average concentration of 100 ng/ul was loaded into the open capillary printing element by a high-speed robotic apparatus which then deposited about 5 nl of cDNA per slide.
Microarrays were UV-crosslinked using a […] UV-crosslinker (Stratagene), and then washed at room temperature once in 0.2% SDS and three times in distilled water. Non-specific binding sites were blocked by incubation of microarrays in 0.2% casein in phosphate buffered saline (Tropix, Bedford Mass.) for 30 minutes at 60° C. followed by washes in 0.2% SDS and distilled water as before.
Early confluent C3A cells (ATTC, Manassas Va.) were treated with captopril (0.5, 2, 48, and 60 μg/ml) for 1, 3, and 6 hours. Early confluent C3A cells were treated with enalapril (0.5, 2, 48, and 60 μg/ml) for 1, 3, and 6 hours. Early confluent C3A cells were treated with LY294002 (0.5, 2, 15, and 25 μg/ml) for 1, 3, and 6 hours. Early confluent C3A cells were starved of insulin for 3 days prior to treatment, then treated with LY294002 (10 μM) for 2, 24, 36, and 72 hours in the presence of insulin. Early confluent C3A cells were treated with DES (1, 10, and 100 μM) for 1, 3, and 6 hours. Early confluent C3A cells were treated with dexamethasone (1 and 20 μM) for 0, 2, 6, and 24 hours. Early confluent C3A cells were treated with MCA (0.5 and 10 μM) for 2, 6, and 24 hours. In all cases mRNA from untreated early confluent cells were prepared in parallel as described below.
Cells were harvested and lysed in 1 ml of TRIZOL reagent (5×10^6 cells/ml; Life Technologies). The lysates were vortexed thoroughly and incubated at room temperature for 2-3 minutes and extracted with 0.5 ml chloroform. The extract was mixed, incubated at room temperature for 5 minutes, and centrifuged at 15,000 rpm for 15 minutes at 4° C. The aqueous layer was collected and an equal volume of isopropanol was added.

## C[C@H](CS)C(=O)N1CCC[C@H]1C(=O)O [Captopril]
  expression level of cDNA clone 63038: −3.16
  expression level of cDNA clone 118501: 4.36
  expression level of cDNA clone 160822: 2.5
  expression level of cDNA clone 211389: −2.52
  expression level of cDNA clone 630625: 2.81
  expression level of cDNA clone 1315663: −2.84
  expression level of cDNA clone 1368834: 2.47
  expression level of cDNA clone 1379063: −4
  expression level of cDNA clone 1381654: 1.57
  expression level of cDNA clone 1448718: −3.93
  expression level of cDNA clone 1519431: 2.36
  expression level of cDNA clone 1559756: 1.56
  expression level of cDNA clone 1619292: −4.3
  expression level of cDNA clone 1696224: 3.28
  expression level of cDNA clone 1711151: 3.05
  expression level of cDNA clone 1846209: 1.81
  expression level of cDNA clone 1930235: 3.25
  expression level of cDNA clone 1998269: 2.99
  expression level of cDNA clone 2055569: −3.33
  expression level of cDNA clone 2055867: −2.61
  expression level of cDNA clone 2123516: 3.89
  expression level of cDNA clone 2360580: −2.71
  expression level of cDNA clone 2446289: −2.15
  expression level of cDNA clone 2757583: 4.03
  expression level of cDNA clone 2769888: −2.01
  expression level of cDNA clone 2820337: 2.29
  expression level of cDNA clone 2884613: 2.46
  expression level of cDNA clone 2912637: −2.38
  expression level of cDNA clone 2921991: −5.21
  expression level of cDNA clone 2933775: 5.14
  expression level of cDNA clone 3225977: 2.89
  expression level of cDNA clone 3240708: 2.02
  expression level of cDNA clone 3381870: 2.62
  expression level of cDNA clone 3679667: −2.09
  expression level of cDNA clone 3815422: −3.78
  expression level of cDNA clone 4107126: 2.88

## O=c1cc(N2CCOCC2)oc2c(-c3ccccc3)cccc12 [LY294002]
  expression level of cDNA clone 172023: −3.38
  expression level of cDNA clone 279898: 6.7
  expression level of cDNA clone 459372: 4.65
  expression level of cDNA clone 1315663: −3.27
  expression level of cDNA clone 1468660: −2.28
  expression level of cDNA clone 1975268: −3.45
  expression level of cDNA clone 1998269: −2.46
  expression level of cDNA clone 2769888: −3.37
  expression level of cDNA clone 3427373: 4.2
  expression level of cDNA clone 3715059: −4.3
  expression level of cDNA clone 4556538: 2.45

## CCOC(=O)C(C)(C)Oc1ccc(Cl)cc1 [Clofibrate]
  expression level of cDNA clone 63038: −3.95
  expression level of cDNA clone 86390: −2.83
  expression level of cDNA clone 118501: 4.87
  expression level of cDNA clone 280932: −2.8
  expression level of cDNA clone 341884: −2.32
  expression level of cDNA clone 348143: 2.11
  expression level of cDNA clone 407032: −3.05
  expression level of cDNA clone 460779: 2.26
  expression level of cDNA clone 630625: 2.53
  expression level of cDNA clone 758192: 3.11
  expression level of cDNA clone 818192: 2.87
  expression level of cDNA clone 1308112: 2.19
  expression level of cDNA clone 1315663: −3.18
  expression level of cDNA clone 1379063: −2.38
  expression level of cDNA clone 1448718: −2.95
  expression level of cDNA clone 1464613: −2.39
  expression level of cDNA clone 1511658: −3.56
  expression level of cDNA clone 1519683: −2.12
  expression level of cDNA clone 1559665: −4.058
  expression level of cDNA clone 1619292: −3.07
  expression level of cDNA clone 1696224: 11.91
  expression level of cDNA clone 1705208: 4.2
  expression level of cDNA clone 1711151: 2.4
  expression level of cDNA clone 1838114: −2.65
  expression level of cDNA clone 1845046: −2.5
  expression level of cDNA clone 1846463: 3.62
  expression level of cDNA clone 1890791: 2.7
  expression level of cDNA clone 1920215: −2.59
  expression level of cDNA clone 1922468: 3.03
  expression level of cDNA clone 1926883: 2.94
  expression level of cDNA clone 1930235: 2.73
  expression level of cDNA clone 1958226: −2.52
  expression level of cDNA clone 1966517: −2.8
  expression level of cDNA clone 1969563: 3.78
  expression level of cDNA clone 1998269: 2.7
  expression level of cDNA clone 2042056: 2.5
  expression level of cDNA clone 2055569: −2.76
  expression level of cDNA clone 2123516: 8.29
  expression level of cDNA clone 2273944: 2.48
  expression level of cDNA clone 2278688: −2.37
  expression level of cDNA clone 2352645: 3.77
  expression level of cDNA clone 2365335: −2.67
  expression level of cDNA clone 2382192: −2.54
  expression level of cDNA clone 2470485: −2.45
  expression level of cDNA clone 2740665: −2.54
  expression level of cDNA clone 2757583: 2.8
  expression level of cDNA clone 2769888: −2.79
  expression level of cDNA clone 2884613: 2.54
  expression level of cDNA clone 2890336: −2.38
  expression level of cDNA clone 2921991: −3.1
  expression level of cDNA clone 2933775: 4
  expression level of cDNA clone 2957205: 2.94
  expression level of cDNA clone 2999855: 2.4
  expression level of cDNA clone 3038508: 2.57
  expression level of cDNA clone 3136857: −3.24
  expression level of cDNA clone 3222802: 2.71
  expression level of cDNA clone 3380034: −3.15
  expression level of cDNA clone 3494714: −2.53
  expression level of cDNA clone 4066764: −2.3
  expression level of cDNA clone 4087621: −3.55
  expression level of cDNA clone 4110976: 2.18
  expression level of cDNA clone 4246966: 8.12
  expression level of cDNA clone 4287327: −3.47
  expression level of cDNA clone 4721130: 4.25
  expression level of cDNA clone 4795635: −2.38
  expression level of cDNA clone 5047895: −2.44
  expression level of cDNA clone 5077219: −2.63
  expression level of cDNA clone 5398014: −2.67
  expression level of cDNA clone 5398701: −3.55
  expression level of cDNA clone 5541949: 2.38
